Test results as given in patent US11439685B2, “Formulations for treating a fibrotic disease” (TRUSTEES OF BOSTON UNIVERSITY, priority 2020, dated 2022).
Entries after “also recorded” stand apart in the source; their conditions may differ. Read-outs that look alike come from different tables or passages of the source.

How the values were obtained:
human fibroblasts = details: cited from earlier work
[1] = test system: shoulder joint in an animal model of shoulder contracture; assay: Histological analysis of the shoulder joint in rat contracture model; assay type: in vivo, rats; details: immobilized shoulders, FIG. 12
[2] = test system: collagen build-up in the lung induced by bleomycin; details: cited from earlier work
[3] = cited from earlier work
[4] = test system: collagen I expression in human fibroblast-like synoviocytes (HFLS); assay: Collagen I expression in synoviocytes treated with relaxin-2 microparticles in transwells; assay type: cell-based
Description: Human fibroblast-like synoviocytes (HFLS) treated with relaxin-2 microparticles in transwells allow for evaluation of the release and efficacy of released relaxin-2 at various time points. […] In the presence of relaxin-2, collagen I is expressed at 20 to 30% of the basal level at weeks 1, 3, and 4.

[5] = test system: glenohumeral joint in an animal model of shoulder contracture; assay: Range of motion in rat shoulder contracture model; assay type: in vivo, rats
Description: The study was approved by the Institutional Animal Care and Use Committee, and 10 Sprague-Dawley rats (250-300 g, Charles River Laboratories, Wilmington, Mass., USA) were used in the study. For each animal, torque was measured per degree, on the intact left shoulder as a function of rotation angle between 80° of internal rotation (negative values by convention) and 60° of external rotation (positive values by convention) prior to any surgical intervention (baseline). […] Therefore, torque values at 60° external rotation (τOUT) and 800 of internal rotation (τINT) were recorded for each animal. The left forelimb of each animal was immobilized using extraarticular internal fixation. Under isoflurane anesthesia, a longitudinal skin incision was made perpendicular to the scapular spine. Two No. 2-0 braided polyester sutures (Ethibond Excel, Ethicon—San Lorenzo, PR, USA) were passed between the medial border of the scapula and the humeral shaft and tightened to immobilize the shoulder joint (FIG. 1, panel A). Muscular structures were not manipulated during surgery, and the animals were allowed normal activity in their cages immediately after the procedure. After 8 weeks of immobilization, the restraining sutures were removed, and the 10 animals were divided into two groups to evaluate changes in ROM (ROM group, n=5) and joint stiffness (stiffness group, n=5). In the ROM group, changes in kinematics were longitudinally quantified in the follow-up period by measuring the ROM achieved with the TOUT and TINT measured at baseline. This was conducted to evaluate whether immobilization mediated a significant reduction in ROM. In the stiffness group, joint kinetics were examined by measuring the differences in TOUT and TINT needed to achieve the original 800 of internal rotation and 60° of external rotation, respectively. […] The baseline measurements for each group were used as internal controls to reduce the total number of animals necessary for the study. […] ROM and torque measurements were performed under general anesthesia using a device that consisted of a sensor assembly, a rotating axle, and an arm clamp. The sensor assembly contained an orientation sensor (3DM-GX3-15, MicroStrain—Williston, Vt.), as well as a reaction torque sensor (TFF400, Futek—Irvine, Calif.) secured to the axle such that the sensing axis was collinear with the center of rotation. […] In the ROM group, pre-set programmable torque values, specific for each animal and measured at baseline (TOUT and TINT), were used as input variables in order to detect changes in rotation ROM with 0.2° resolution. […] For each animal, torque was measured per degree, on the intact left shoulder as a function of rotation angle between 1000 of internal rotation and 600 of external rotation prior to any surgical intervention. […]

[6] = Circular dichroism spectroscopy of relaxin-2 fold and stability; assay type: physicochemical; details: for time relaxin-2 is stable: 37° C., no loss of alpha helical structure
Description: Relaxin-2 loaded PLGA microparticles (RMPs) were prepared based on the water/oil/water (w/o/w) method as described by Igartua, M., et. al., International Journal of Pharmaceutics, 1998, 169(1): 45-54 at 1.27×10-3 wt % loaded relaxin as determined by ELISA analysis. Significant optimization and tailoring of the method was required to obtain the particle. Amounts, time, temperature, mixing speed, polymer LA:GA content were all varied to identify a unique non-obvious set of conditions to prepare the polymer. […] Relaxin-2 in the relaxin-2 microparticles maintained its native secondary and tertiary structure through the w/o/w double-emulsion process. […] Additionally, relaxin-2 was stable at 37° C. over 2 months (FIG. 2, right). The relaxin-2 PLGA microparticles were prepared with batch-to-batch consistency and were resuspended in PEG-600 to reduce aggregation and flocculation, as well as to ease administration through a 23 G needle.
Two amphiphilic hydrogels were synthesized for the physical entrapment of relaxin-2 in order to control its sustained release (FIG. 6). These amphiphilic molecules melted at 95° C. and congealed when slowly cooled back to room temperature strictly from non-covalent interactions. The alkyl chain of 1 and alkyl fluoride chain of 2 allow for hydrophobic interactions between each molecule, while the trizol and thymidine moieties allow for pi-pi stacking. Lastly, the deoxyribose and glucose groups facilitate hydrogen bonding (Godeau, G., et al., Tetrahedron Letters 2010, 51: 1012-1015; Ramen, F. A. et al., Biomaterials. 2017, 145: 72-80). Together, these amphiphilic molecules create unique and stable supramolecular assemblies that are stable at 37° C. for at least two weeks. This stability feature is another novel finding and benefit to the use of the hydrogels. Three gels of each 1 and 2 were created with bovine serum albumin and relaxin-2 at different densities by dissolving each molecule in a solution of phosphate buffered saline with protein and heating to 95° C. for 30 minutes. […]

heart failure = details: 30 micrograms/kg/day for 2 days, intravenous infusion; cited from earlier work
[7] = test system: cultured renal fibroblasts, epithelial cells and mesangial cells; details: TGF-β-induced; cited from earlier work
scleroderma = details: cited from earlier work
[8] = regressed when marimastat was stopped; cited from earlier work

Compound	levels of collagen types I and III and fibronectin (human fibroblasts)	histology: adhesions / hallmarks of arthrofibrosis [1]	collagen build-up in the lung and overall fibrosis [2]	efficacy in animals ([3]; bolus dose)	efficacy in animals ([3]; sustained dose)	collagen I reduced to (densitometry) ([4]; after release of relaxin-2 from microparticles, FIG. 4 legend)	collagen I expression compared to untreated control ([4]; relaxin-2 released over four weeks, synoviocytes)	internal ROM ([5]; intravenous injection at a much greater dose)	internal ROM ([5]; mIA relaxin-2 5 x 2 ug/kg every other day, or single intraarticular RMP approx. 10 ug/kg, follow-up 8 weeks)	internal ROM ([5]; mIA relaxin-2 5 x 2 ug/kg every other day, or single intraarticular RMP approx. 10 ug/kg, follow-up 8 weeks, listed as relaxin-2)	internal ROM ([5]; singular articular injection)	time relaxin-2 is stable [6]	time relaxin-2 is stable ([6]; listed as relaxin-2)	secondary/tertiary structure of relaxin-2 after w/o/w double emulsion process ([6]; circular dichroism, freshly prepared vs emulsified)	trial's primary endpoint of effectiveness (heart failure)	fibronectin levels and degradation [7]	trial's primary endpoint of effectiveness (scleroderma; 25 micrograms/kg/day for 24 weeks, subcutaneous delivery)	adverse events (scleroderma; in vivo, sc)	adverse effect in patients [8]
Relaxin-2	reduction	lacked any apparent adhesions	decreased collagen build-up	not be effective	effective	approximately 50%	significant downregulation in collagen I expression	similarly constricted internal ROM compared with the untreated control group	significant increase back to healthy baseline by week 2	restoration of internal ROM to baseline measurements	similarly constricted internal ROM compared with the untreated control group	up to 2 months	2 months	no change; also recorded: unaffected by the double emulsion process	did not meet the trial's primary endpoint of effectiveness	decreased TGF-β-induced fibronectin levels and increased fibronectin degradation	did not meet the trial's primary endpoint of effectiveness	declines in creatine clearance and renal adverse events	
CNC(=O)[C@@H](NC(=O)[C@H](CC(C)C)[C@H](O)C(=O)NO)C(C)(C)C [marimastat]																			developed shoulder contractures
